From patent publication US8389739B1, “Modulators of retinoid-related orphan receptor gamma” (Orphagen Pharmaceuticals, priority 2006, dated 2013)

Tests used:
Type in all cases: cell-based
[1] = target: T1, RORβ (human RORβ) (Homo sapiens, UniProt Q92753); test: Transcriptional assay of RORβ as GAL4 hybrid; details: same format as the GAL4-RORγ assay
T1 construct: human RORβ (NR1F2, aa 201-459); expressed in transfected cells; host or cells: CHO cells, transient transfection
Description: (§1) This example also describes several additional tests that were commonly performed to confirm the authenticity of a hit to RORγ. These tests also verified the validity of the transcriptional and biochemical assays used. […] In some cases, close analogs of a confirmed hit were obtained by synthesis or purchase from a commercial source. The series of compounds related to the confirmed hit was then tested in the biochemical and transcriptional assays. The rank order of the potency of the compounds was then compared. […] The data imply in turn that the compounds are binding to the same binding pocket. […]
(§2) Four hours after transfection, cells were dislodged with trypsin and seeded into a 384-well plate at 8,000 cells/well using a Titertek Multidrop 384. […] After incubation for 2 hours at 37 degrees centigrade, the conversion of resazurin to resorufin was measured by fluorescence (excitation at 570 nm and emission at 615 nm). […] Percent viability was determined as 2 hour fluorescence, minus background at t=0 hours, normalized to DMSO controls. […] Luminescence is detected with a Victor 2-V plate reader (Perkin-Elmer) and normalized to luciferase activity of DMSO control wells alone.

[2] = target: T2, SF-1 (human SF-1) (Homo sapiens, UniProt Q13285); test: Transcriptional assay of SF-1 as GAL4 hybrid; details: same format as the GAL4-RORγ assay
T2 construct: human SF-1 (NR5A1, aa 198-462); expressed in transfected cells; host or cells: CHO cells, transient transfection
Description: as §1, §2

[3] = tested on: IL-17 release and TH-17 cells in lymph node cultures; test: Lymph node cell cultures from PLP-immunized SJL/J mice, IL-17 ELISA and Th-17 FACS
Description: FIGS. 13A-F. IL-17 levels in lymph node cells from mice immunized with myelin-derived peptides respond to cognate peptide antigens, IL-23 and RORγ ligands. (FIG. 13A) SJL/J mice were immunized by complete Freund's adjuvant (CFA) only or by Proteolipid Protein residues 139-151 (PLP139-151) emulsified in CFA. Lymph nodes were cultured for 3 days in with or without 40 μg/ml PLP in the presence or absence of OR-885. Culture media were analyzed by ELISA for IL-17. (FIGS. 13B-C) Lymph node cells from PLP-immunized SJL/J mice were cultured as before with the addition of 10 ng/ml IL-23 and 3 μM compounds. At the end of 1 day or 3 days in culture, Th-17 (CD4^+CD8^−IL17^+) cell frequency was measured by FACS (FIG. 13B) and compared to IL-17 levels in culture media (FIG. 13C). (FIGS. 13D-F) Lymph node cells from MOG35-55 immunized C57BL/6 mice were cultured for 3 days with 30 μg/ml MOG and/or 10 ng/ml IL-23. RORγ ligands were not added (FIG. 13D), or added at the beginning of the culture at a single concentration (FIG. 13E, 1 μM) or in multiple doses (FIG. 13F).
FIG. 14. Inhibition of IL-17 release in mouse lymph node cultures by the RORγ antagonist OR-885 can be reversed by the RORγ agonist OR-12872. The lymph node cells were culture in the presence of 10 ng/mL IL-23 and 40 μg/mL PLP for three days under identical conditions to FIG. 13 and IL-17 in the culture supernatant was measured by ELISA.
ELISA kits for mouse IL-17 and human IL-17 were from eBioscience (San Diego, Calif.). ELISA assays were performed following the manufacturer's protocol. Certain samples were diluted 20-fold to avoid maximization of enzymatic signals. For mouse IL-22 ELISA, antibodies and standards were from Antigenix America (Huntington Station, N.Y.) and accessory components were from eBioscience. The IL-22 assay protocol was similar to that of the IL-17 assays. […]

T2 sequence (Q13285 198-461 limits assumed): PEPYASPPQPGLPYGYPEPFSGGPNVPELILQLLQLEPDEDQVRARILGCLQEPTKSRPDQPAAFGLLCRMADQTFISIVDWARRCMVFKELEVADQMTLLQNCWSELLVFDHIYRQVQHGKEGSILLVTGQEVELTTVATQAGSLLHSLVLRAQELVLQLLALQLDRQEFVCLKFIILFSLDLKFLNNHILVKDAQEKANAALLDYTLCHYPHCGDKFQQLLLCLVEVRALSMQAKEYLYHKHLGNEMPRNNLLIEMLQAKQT
T1 sequence (Q92753 212-470): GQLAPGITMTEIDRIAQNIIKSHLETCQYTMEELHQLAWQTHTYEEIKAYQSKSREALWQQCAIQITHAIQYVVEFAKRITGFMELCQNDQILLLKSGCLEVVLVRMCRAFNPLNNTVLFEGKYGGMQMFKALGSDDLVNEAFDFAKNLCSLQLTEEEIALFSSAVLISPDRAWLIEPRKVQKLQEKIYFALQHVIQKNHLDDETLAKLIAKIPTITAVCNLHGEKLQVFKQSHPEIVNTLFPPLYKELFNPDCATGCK

With `O=S(=O)(c1ccccc1)N(CC(F)(F)F)c1ccc(C(O)(C(F)(F)F)C(F)(F)F)cc1` [Compound T0901317, N-(2,2,2-Trifluoro-ethyl)-N-[4-(2,2,2-trifluoro-1-hydroxy-1-trifluoromethyl-ethyl)-phenyl]-benzenesulfonamide, reference compound] the “effect on the transcription of RORβ” value [1] was “no effects” and the “effect on the transcription of SF-1” value [2] was “no effects”.

`C[C@@H]1CC[C@@]2(OC1)O[C@H]1C[C@H]3[C@@H]4CC[C@H]5C[C@@H](O)CC[C@]5(C)[C@H]4C[C@@H](O)[C@]3(C)[C@H]1[C@@H]2C` [OR-885, 5α,20α, 22α, 25D-SPIROSTAN-3β, 12β-DIOL] was tested, and the “induction of TH-17 cells (as a percentage of total live cells)” value ([3]; PLP, 10 ng/ml IL-23, 3 μM compounds (FIG. 13B)) was “block” and the “PLP-stimulated release of IL-17” value ([3]; lymph node cultures, 40 μg/ml PLP, 3 days) was “inhibited”.

With `CCN(c1ccc(C(O)(C(F)(F)F)C(F)(F)F)cc1)S(=O)(=O)c1ccc([N+](=O)[O-])cc1` [OR-1050, N-Ethyl-4-nitro-N-[4-(2,2,2-trifluoro-1-hydroxy-1-trifluoromethyl-ethyl)-phenyl]-benzenesulfonamide] the “effect on the transcription of RORβ” value [1] was “no effects” and the “effect on the transcription of SF-1” value [2] was “no effects”.

For `COC(C)CCC(C)C1CCC2C3CC(O)C4CC(O)CCC4(C)C3CCC12C` (stereo not shown) [OR-12872, 17-(4-Methoxy-1-methyl-pentyl)-10,13-dimethyl-hexadecahydro-cyclopenta[a]phenanthrene-3,6-diol], the “reversal of antagonist suppression of IL-17 release” value ([3]; 10 ng/mL IL-23 and 40 μg/mL PLP, three days (FIG. 14)) was “reverses the suppressive effects of OR-885 on IL-17 release”.
